Measured values reported in the METLIN SMRT retention time set (Domingo-Almenara et al. 2019).

Experiment: gradient 5% acetonitrile 3 min, to 50% in 2 min, to 85% in 15 min, held 3 min, 100 µL/min
Conditions: column: Zorbax Extend-C18 2.1 x 50 mm; eluents: water / acetonitrile, 0.1% formic acid
Procedure, shortened: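 Pure standards were analyzed in mixtures of ~100 molecules using HPLC coupled to a quadrupole time-of-flight mass spectrometer, in both positive and negative ionization mode. Separation used a Zorbax Extend-C18 column (2.1 × 50 mm, 1.8 μm) at 100 μL/min, with water and acetonitrile each containing 0.1% formic acid. Dead and dwell volumes were 40 μL and 900 μL, and data were collected over 3 months. Retention time was read from computationally picked adduct peaks, each inspected manually.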

Row | SMILES | RP-LC retention time
1 | COc1ccc(Cn2nccc2NC(=O)c2cc(=O)c3ccc(Br)cc3o2)cc1 | 870 s
2 | O=C(Nc1nc(-c2cccc([N+](=O)[O-])c2)cs1)c1cccc(Br)c1 | 1170 s
3 | COc1ccc(-c2noc(CN3C(=O)COc4ccc(C)cc43)n2)cc1OC | 934 s
4 | CCN1C(=O)COc2ccc(-c3noc(-c4cccc(OC)c4)n3)cc21 | 1130 s
5 | COc1cccc2c(Nc3cccc(C)c3)cc(C(=O)N3CCSCC3)nc12 | 696 s
6 | CC1CCN(S(=O)(=O)c2cc(C(=O)NCc3ccc(Br)cc3)n(C)c2)CC1 | 1080 s
7 | COC(=O)c1ccc2c(=O)n(-c3ccc(OC)cc3)c(N3CCSC3)nc2c1 | 1050 s
8 | Cc1ccc(C)c(NC(=O)N2CCC(c3nc(C(=O)N4CCOCC4)c(C)o3)CC2)c1 | 712 s
9 | Cn1c(=O)sc2cc(S(=O)(=O)N3CCC(C(=O)N4CCc5ccccc5C4)CC3)ccc21 | 896 s
10 | Nc1c(CC(=O)O)cccc1C(=O)c1ccc(Br)cc1 | 909 s
11 | CCNC(=O)N1CCc2c([nH]c3ccc(Cl)cc23)C12C(=O)N(C)c1ccccc12 (centres undefined) | 822 s
12 | CS(=O)(=O)N1CCC(C(=O)Nc2ccc(F)cc2)Oc2ccc(Cl)cc21 (centres undefined) | 903 s
13 | Cc1cccc(NC(=O)c2nc3ccccc3[nH]c2=O)c1 | 771 s
14 | Cc1cccc(NC(=O)N2CCC(C)(C(=O)NCc3ccc(F)cc3)CC2)c1C | 834 s
15 | Cc1ccc(-c2nc(-c3ccc4c(c3)nnn4CCN(C)C)no2)cc1F | 708 s
16 | O=C(CN1C(=O)COc2ccc(C(=O)N3CCc4ccccc4C3)cc21)N1CCCC1 | 763 s
17 | CCN1CCN(C(=O)C2CCCN(S(=O)(=O)c3ccc(OC)c(C)c3)C2)CC1 (centres undefined) | 636 s
18 | CC(C)Cn1c(-c2cccc(C(=O)NC(C)C)c2)nc2cccnc21 | 763 s
19 | CCOc1ccc(N2CC(c3nc(-c4ccc(OC)c(OC)c4)no3)CC2=O)cc1 (centres undefined) | 882 s
20 | Cc1nc(-c2csc(S(=O)(=O)N3CCCC(C(=O)Nc4ccc5c(c4)OCO5)C3)c2)no1 (centres undefined) | 894 s
21 | Cn1nc2n(c1=O)CCN(C(=O)c1cc(C3CC3)[nH]n1)CC2 | 575 s
22 | Cc1ccccc1Cn1nc2ccc(S(=O)(=O)N3CCCC3)cn2c1=O | 891 s
23 | Cc1cccc(Sc2nccnc2N2CCC(C(=O)NCC3CCCO3)CC2)c1 (centres undefined) | 888 s

Row | SMILES | RP-LC retention time
24 | CNC(=O)c1cn(-c2ccc(SCC(=O)NCc3ccc4c(c3)OCO4)nn2)cn1 | 642 s
25 | CSc1cccc(NC(=O)Nc2c(-c3ccncc3)nc3ccccn23)c1 | 623 s
26 | O=C(Cn1c(=O)c2cccn2c2ccccc21)NCc1cccs1 | 763 s
27 | CCc1nn2c(CNS(=O)(=O)Cc3ccc(Cl)cc3)c(-c3ccccc3)nc2s1 | 1020 s
28 | CCOC(=O)c1c(C)[nH]c(C(=O)N2CCC(CC(=O)NCc3cccc(C)c3)CC2)c1C | 820 s
29 | CN1c2cc(C(=O)N3CCN(C4CCCCC4)CC3)ccc2C(=O)N2CCCCC21 (centres undefined) | 608 s
30 | COc1cc(-c2noc(-c3nc(-c4ccccc4)no3)n2)cc(OC)c1OC | 1070 s
31 | COCCO[C@H]1C(=O)N(C2CCN(S(C)(=O)=O)CC2)[C@H]1c1ccncc1 | 543 s
32 | CN(CC1(C)CCOCC1)S(=O)(=O)c1ccc(F)c(F)c1 | 910 s
33 | CCOC(=O)c1nc(Nc2ccc(C(C)C)cc2)c2ccccc2n1 | 1020 s
34 | CCOc1ccc(S(=O)(=O)N2CCCC(C(=O)Nc3cccc(C)c3)C2)cc1 (centres undefined) | 1050 s
35 | CCCCN1C(=O)C(C)(C(=O)Nc2ccc(F)c(F)c2)Oc2cccnc21 (centres undefined) | 1070 s
36 | CS(=O)(=O)N1CCCc2ccc(NC(=O)Nc3ccc(Cl)c(Cl)c3)cc21 | 971 s
37 | CC(C)CCNC(=O)C1(C)CN(S(=O)(=O)c2ccccc2)CC(=O)N1Cc1ccccc1 (centres undefined) | 973 s
38 | COC(=O)c1ccc(-c2nc3cnccn3c2Nc2ccc(OC)cc2)cc1 | 826 s
39 | Cn1ncc2c3ccccc3n(CCCC(=O)NCCN3CCCCCC3)c2c1=O | 645 s
40 | CCN(CC)C(=O)c1c(C)sc2ccn(CC)c(=O)c12 | 720 s
41 | CCOCCCNC(=O)C1c2ccccc2C(=O)N(C)C1c1cccs1 (centres undefined) | 722 s
42 | CCN1CCC(N(Cc2cccs2)C(=O)Nc2cccc(Cl)c2)CC1 | 679 s
43 | CCn1cc(-c2nc(C(=O)Nc3ccc(C#N)cc3)cs2)c2cccnc21 | 1050 s
44 | CCN(CC)c1nc2cc(C(=O)NCC3CC3)ccc2c(=O)n1Cc1ccccc1 | 1020 s
45 | CC1=C(N2CC2)C(=O)C(CO)=C(N2CC2)C1=O | 585 s
46 | O=c1n(Cc2ccc(F)cc2)nc2ccc(S(=O)(=O)N3CCCC3)cn12 | 855 s

Row | SMILES | RP-LC retention time
47 | Cc1ccc(-c2noc(Cc3nnc(-c4cccc(Br)c4)o3)n2)cc1C | 1230 s
48 | CC1=C(c2ccc(C)cc2)S(=O)(=O)N=C1N1CCCN(C(=O)c2cccnc2)CC1 | 687 s
49 | O=C(NCC1CC1)c1c(OCC2CC2)cc(=O)n2c1CCCCC2 | 688 s
50 | COc1ccc(C(=O)N2CC(N3CC(C(=O)N4CCCC4)CC3=O)C2)cc1F (centres undefined) | 639 s
51 | Cc1ccc(NC(=O)C2CCN(S(=O)(=O)c3ccc4c(c3)NC(=O)C(C)O4)CC2)cc1Cl (centres undefined) | 948 s
52 | CC(Oc1c(Cl)cccc1Cl)C1=NCCN1 (centres undefined) | 622 s
53 | COc1ccc(OC)c(S(=O)(=O)NCCN2CCN(c3ccccc3F)CC2)c1 | 588 s
54 | COc1ccc(-c2nc3cnccn3c2Nc2ccc(C(=O)NC3CCCCC3)cc2)cc1OC | 755 s
55 | CCOc1ccccc1NC(=O)N1CCC2(C1)C(=O)N(C)c1ccc(OC)cc12 (centres undefined) | 882 s
56 | CC(C)NC(=O)c1nc(-c2cn(-c3cccc(F)c3)nn2)no1 | 834 s
57 | COc1cc(OC)cc(-c2noc(-c3nnn(Cc4nc(-c5cccc(C)c5)oc4C)c3C)n2)c1 | 1280 s
58 | CCNc1cc(N2CCC(CCC(=O)NCc3ccc(F)cc3Cl)CC2)ncn1 | 680 s
59 | CCOc1ccc(N2C(=O)Nc3ccccc3C2(O)C(=O)NCCCN2CCCCC2)cc1 (centres undefined) | 576 s
60 | COCCC(=O)N1CCc2c(c(-c3nc(C4CC4)no3)nn2C)C1 | 670 s
61 | CCN1CCN(C(=O)CN2c3ccc(C(C)C)cc3-c3ccccc3S2(=O)=O)CC1 | 712 s
62 | CC(=O)N1CCC2(CC1)OC(=O)C(C)=C2C(=O)NCCCN(Cc1ccccc1)C(C)C | 580 s
63 | O=C1OC(c2ccccc2)=N/C1=C\c1ccc(N(CCCl)CCCl)cc1 | 1240 s
64 | O=C(NCCn1c(=O)n(Cc2ccccc2)c2cccnc21)c1ccc2c(c1)OCO2 | 773 s
65 | COc1cccc(C(=O)N2CCC3(CC2)NC(=O)c2ccccc2N3C)c1 | 718 s
66 | CCNS(=O)(=O)c1cc(-c2nc(C)cs2)n(C)c1C | 792 s
67 | CC(C)N1C(=O)c2cccnc2Sc2cc(NC(=O)Cc3cccc(Cl)c3)ccc21 | 940 s
68 | CCOc1ccccc1NC(=O)C1CCN(S(C)(=O)=O)c2ccccc2O1 (centres undefined) | 994 s
69 | CCN(Cc1ccccc1)C(=O)c1noc2c1CCCC2 | 1010 s

Row | SMILES | RP-LC retention time
70 | Cc1cc(F)ccc1NC(=O)CCc1c(C)nn(-c2cc(N(C)C)ncn2)c1C | 778 s
71 | CCc1cc(=O)n(CC(=O)NC2CCCC2)c(N)n1 | 574 s
72 | COc1ccc2c(c1)c(CN1CCOCCNC(=O)CC1)cn2C(C)C | 642 s
73 | CCOc1ccc(-c2noc(CN3C(=O)COc4ccccc43)n2)cc1 | 1030 s
74 | Cc1ccccc1N1C(=O)CN(S(C)(=O)=O)CC1(C)C(=O)NCc1ccc(F)cc1 (centres undefined) | 818 s
75 | CC1=C(c2ccc(Cl)cc2)S(=O)(=O)N=C1N1CCCN(C(=O)c2ccccc2)CC1 | 862 s
76 | CCC(=O)NCc1nc2c(n1C)CN(C(=O)c1ccccc1Br)CC2 | 505 s
77 | Cc1nnc2c(=O)n(CC(=O)NC(C)c3ccc(F)cc3)c3cccnc3n12 (centres undefined) | 677 s
78 | O=C(c1ccc(Cn2cncn2)cc1)N1CCN(c2ccccc2)CC1 | 707 s
79 | O=C(NC(c1ccccc1)c1nnc(N2CCCC2)o1)c1ccc2c(c1)OCO2 (centres undefined) | 777 s
80 | COc1ccc(NC(=O)NCC23CCC=C2N(CC2CC2)C(=O)CC3)cc1 (centres undefined) | 813 s
81 | O=C(Nc1ccc(NC(=O)N2CCC(C(=O)NCC3CC3)CC2)cc1)NC1CCCCC1 | 733 s
82 | Cc1ccc(-c2csc(NC(=O)CSc3nc4c(cc3C#N)CCCC4)n2)cc1 | 1290 s
83 | Cc1nc(-c2ccc(N3CCN(C(=O)Nc4ccc(F)cc4)CC3)cc2)no1 | 787 s
84 | O=C(Nc1ccc(Cl)cc1F)N1CCCN(C2CCN(CC3CC3)C2=O)CC1 (centres undefined) | 575 s
85 | CC1(C)CS(=O)(=O)N(c2cccc(C(=O)NCCc3c[nH]c4ccccc34)c2)C1=O | 825 s
86 | COC(=O)c1cnn(-c2ccc(C(=O)N3CCc4ccccc43)cc2)c1N | 768 s
87 | COCc1nc2c(NC(=O)C(C)C)cccn2n1 | 653 s
88 | Cc1cc(C)c(C)c(S(=O)(=O)N(C)C)c1C | 939 s
89 | Cc1ccc2c(ccn2CCNC(=O)C2CC(=O)N(c3n[nH]c4ccccc34)C2)c1 (centres undefined) | 766 s
